Assay results: US20240208972A1, “LRRK2 INHIBITORS AND USES THEREOF” (NEURON23, INC., priority 2022, published 2024)

Tests used:
Caco-2 cells = test: Caco-2 bidirectional permeability; type: in vitro ADME; conditions: for Caco-2 A2B (10^−6 cm/s): A to B; for Caco-2 A2B (10^−6 cm/s) / Caco-2 B2A (10^−6 cm/s): HBSS pH 7.4, 2 hours; for Caco-2 B2A (10^−6 cm/s): B to A; for Caco-2 ER: Efflux Ratio=Papp (BA)/Papp (AB)
Outline: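 Caco-2 monolayers grown 21–28 days on PET inserts were run in duplicate in HBSS with 10 mM HEPES, pH 7.4. Compound was tested in both directions at […] for 2 h at 37 °C and quantified by LC-MS/MS. Papp, % recovery and efflux ratio (B-A/A-B) were calculated, with lucifer yellow checking monolayer integrity.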

[1] = Human hepatocyte stability, in vitro h-Hept CLpredict; type: in vitro ADME; conditions: cryopreserved hepatocytes, predicted hepatic clearance, cells without asterisk, read-out: hHep Cl
Outline: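 Cryopreserved human hepatocytes at 0.5×10^6 viable cells/mL in William's E medium, compound added from 100 μM solution, sampled 0–120 min in duplicate with LC/MS/MS quantitation. t1/2 from parent disappearance converted to CLint, then scaled to predicted hepatic clearance (well-stirred model, fub assumed 1) and extraction ratio.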

Row | Caco-2 A2B (10^−6 cm/s) (Caco-2 cells) | Caco-2 B2A (10^−6 cm/s) (Caco-2 cells) | Caco-2 ER (Caco-2 cells) | CLhep predicted at 1 µM [1] [mL/min/kg] | Structure (SMILES)
1 | H (H (High permeability)”: A2B (B2A)>5) | H (H (High permeability)”: A2B (B2A)>5) | N (N (Non-substrate)”: ER<2.5) | < 6.3 | Cc1n[nH]c2c1N=C(c1c(F)cccc1F)Nc1c-2cc(N2CCN(CCF)CC2)nc1C [Example 9, 8-(2,6-difluorophenyl)-13-[4-(2-fluoroethyl)piperazin-1-yl]-5,11-dimethyl-3,4,7,9,12-pentazatricyclo[8.4.0.02,6]tetradeca-1(10),2(6),4,7,11,13-hexaene]
2 | H (H (High permeability)”: A2B (B2A)>5) | H (H (High permeability)”: A2B (B2A)>5) | N (N (Non-substrate)”: ER<2.5) | 6.3 to 14.7 | Cc1n[nH]c2c1N=C(c1c(F)cccc1F)Nc1ccc(N3CCOCC3)cc1-2 [Example 29, 4-(5-(2,6-difluorophenyl)-3-methyl-1,6-dihydrobenzo[d]pyrazolo[3,4-f][1,3]diazepin-9-yl)morpholine]
3 | H (H (High permeability)”: A2B (B2A)>5) | H (H (High permeability)”: A2B (B2A)>5) | N (N (Non-substrate)”: ER<2.5) | 6.3 to 14.7 | Cc1n[nH]c2c1N=C(c1c(F)cccc1F)N1CCc3nc(N4CCOCC4)cc-2c31 [Example 42, 4-[8-(2,6-difluorophenyl)-5-methyl-3,4,7,9,13-pentazatetracyclo[7.6.1.02,6.012,16]hexadeca-1(16),2(6),4,7,12,14-hexaen-14-yl]morpholine]
4 | H (H (High permeability)”: A2B (B2A)>5) | H (H (High permeability)”: A2B (B2A)>5) | N (N (Non-substrate)”: ER<2.5) | 6.3 to 14.7 | Cc1n[nH]c2c1N=C(c1c(F)cccc1F)Nc1ccc(N3CCO[C@H](C)C3)cc1-2 [Example 7, (R)-4-(5-(2,6-difluorophenyl)-3-methyl-1,6-dihydrobenzo[d]pyrazolo[3,4-f][1,3]diazepin-9-yl)-2-methylmorpholine]
5 | H (H (High permeability)”: A2B (B2A)>5) | H (H (High permeability)”: A2B (B2A)>5) | L (L (Likely)”: ER>2.5) | < 6.3 | Cc1n[nH]c2c1N=C(c1c(F)cccc1F)Nc1ccc(N3CCN(CCF)CC3)cc1-2 [Example 25, 5-(2,6-difluorophenyl)-9-[4-(2-fluoroethyl)piperazin-1-yl]-3-methyl-1,6-dihydropyrazolo[4,3-d][1,3]benzodiazepine]
6 | H (H (High permeability)”: A2B (B2A)>5) | H (H (High permeability)”: A2B (B2A)>5) | N (N (Non-substrate)”: ER<2.5) | 6.3 to 14.7 | Cc1n[nH]c2c1N=C(c1c(F)cccc1F)Nc1ccc(-c3cnn(C(F)F)c3)cc1-2 [Example 13, 9-[1-(difluoromethyl)pyrazol-4-yl]-5-(2,6-difluorophenyl)-3-methyl-1,6-dihydropyrazolo[4,3-d][1,3]benzodiazepine]
7 | H (H (High permeability)”: A2B (B2A)>5) | H (H (High permeability)”: A2B (B2A)>5) | N (N (Non-substrate)”: ER<2.5) | 6.3 to 14.7 | Cn1nccc1-c1cc2c(cn1)NC(c1c(F)cccc1F)=Nc1c(Cl)n[nH]c1-2 [Example 59, 3-chloro-5-(2,6-difluorophenyl)-9-(1-methyl-1H-pyrazol-5-yl)-1,6-dihydropyrazolo[4,3-d]pyrido[4,3-f][1,3]diazepine]

Row | Structure (SMILES) | Caco-2 A2B (10^−6 cm/s) (Caco-2 cells) | Caco-2 B2A (10^−6 cm/s) (Caco-2 cells) | Caco-2 ER (Caco-2 cells) | CLhep predicted at 1 µM [1] [mL/min/kg]
8 | Cc1n[nH]c2c1N=C(c1c(F)cccc1F)Nc1cnc(C#CC3(C)CCOCC3)cc1-2 [Example 17, 8-(2,6-difluorophenyl)-5-methyl-13-[2-(4-methyltetrahydropyran-4-yl)ethynyl]-3,4,7,9,12-pentazatricyclo[8.4.0.02,6]tetradeca-1(10),2(6),4,7,11,13-hexaene] | M (M (Moderate permeability)”: 1≤A2B (B2A)≤5) | H (H (High permeability)”: A2B (B2A)>5) | L (L (Likely)”: ER>2.5) | > 14.7
